Data from PubChem BioAssay (NCI).
Values joined by “and” are separate entries in the source; they are usually repeats but may differ in a detail not shown here. Equal entries are not always repeated.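 These data come from cells grown in 96-well plates and exposed to compound for 48 hours at five concentrations. GI50 marks 50% less growth. TGI: total growth inhibition.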

The compounds below were run on SF-539 CNS (assay: NCI-60 cell line screen, 48 h).

| SMILES | TGI | GI50 [µM] |
| --- | --- | --- |
| CC1=NNC(=O)C2CCC(=O)N12 (stereo not drawn) | > 100 µM |  |
| CC(C)c1ccccc1NC(=O)CCc1n[nH]c(=S)o1 | > 100 µM |  |
| CCCCC(C(=O)C(=O)NC1C2CC3CC(C2)CC1C3)C(=O)C(C)C (stereo not drawn) | > 100 µM |  |
| COc1ccc(CN2C(=O)/C(=C\C(=O)c3ccc(OCCN4CCCCC4)cc3)c3ccccc32)cc1 | 3.67 µM | 1.9 |
| COC(=O)c1cc2c(s1)C(=O)c1ccccc1-2 | > 100 µM |  |
| NC(=O)NC1C(c2ccccc2)=C1c1ccccc1 | 31.2 µM |  |
| Cn1c2c(c3ccccc31)C1CCCCCCC1C1C(=O)OC(=O)C21 (stereo not drawn) | > 100 µM |  |
| Cc1ccc(S(=O)(=O)N(CC(=O)O)c2ccccc2)cc1 | > 100 µM |  |
| COc1ccc(C(=O)C(c2ccc(OC)cc2)C2(O)C(=O)Nc3ccc([N+](=O)[O-])cc32)cc1 (stereo not drawn) | 24 µM |  |
| O=C(/C=C/c1ccccc1O)c1ccccc1O | > 100 µM |  |
| Cc1nc2c(-c3cnc(N)nc3)nc(N3CCOCC3)nc2n1C(C)C | 1.17 µM and 0.481 µM |  |
| CCCCCCNC(=O)c1cc(NCc2cc(O)ccc2O)ccc1O | 6.06 µM | 1.91 |
| N#CC(N)(C(=O)CCC(=O)Nc1cccc(Cl)c1)c1ccc(Cl)cc1 (stereo not drawn) | > 100 µM |  |
| S=C(Nc1ccccc1)N(/N=C/C=C/c1ccccc1)c1nnc(-c2ccccc2)c(-c2ccccc2)n1 | > 100 µM |  |
| CN1CCN(CCOc2ccc(-c3cnc4c(-c5ccccc5F)cnn4c3)cc2)CC1 | 2.96 µM | 1.59 |
| CN(C)N=Nc1ccc(NC=O)cc1 | > 100 µM |  |

The compounds below were run on SK-MEL-2 melanoma (assay: NCI-60 cell line screen, 48 h).

| SMILES | TGI | GI50 [µM] |
| --- | --- | --- |
| CC(C)N(C(=O)C12C3C4C5(C#N)C3C1(C#N)C5C42I)C(C)C (stereo not drawn) | > 100 µM |  |
| C=COCCCOc1ccccc1 | > 100 µM |  |
| COc1ccc2c3c([nH]c2c1[N+](=O)[O-])C(C)=NCC3 | > 100 µM |  |
| C=C(c1nc2ccc(Cl)cc2[nH]c1=O)C(O)c1ccc(C(O)C(=O)c2nc3ccc(Cl)cc3[nH]c2=O)cc1 (stereo not drawn) | > 100 µM |  |
| O=c1c2sc(=S)n(-c3ccc(F)cc3)c2ncn1Cc1ccc(F)cc1F | > 100 µM | > 100 |
| CC(C)(C)CC(C)(C)c1cc2c(O)c(c1)Cc1cc(C(C)(C)CC(C)(C)C)cc(c1O)Cc1cc(C(C)(C)CC(C)(C)C)cc(c1O)Cc1cc(C(C)(C)CC(C)(C)C)cc(c1O)C2 | > 100 µM |  |
| C=CCCCCC/C=C\[C@H](O)C#CC#C/C=C/CO | > 100 µM | 83.3 |
| Cc1cc([N+](=O)[O-])ccc1Nc1cccc(Cl)c1C | 29 µM |  |
| CC1=C(C(=O)Nc2ccccc2)C(c2ccccc2)C(C(=O)Nc2ccccc2)=C(C)N1 | > 100 µM |  |
| Cc1nn(-c2ccccc2)c2nc(N3CCOCC3)nnc12 | > 100 µM |  |
| CC(C)c1ccc2c(c1)CC[C@@H]1[C@@](C)(C(=O)O)CCC[C@]21C | 16.1 µM | 2.91 |
| CCOc1ccccc1C=C1c2ccccc2C(=O)c2ccccc21 | 11.9 µM |  |
| O=C(CCn1[nH]c(=O)c(Cl)c(Cl)c1=O)NO | > 100 µM |  |
| CC(C)=CC/C=C(/C)[C@H]1CC[C@]2(C)[C@@H]1CC[C@@H]1[C@@]3(C)CCCNC(C)(C)[C@@H]3CC[C@]12C | 22.5 µM | 6.06 |
| [N-]=[N+]=NC12CC3C4CC5CC3C(C1)C(C5)C4C2 | > 100 µM |  |
| CN(C)c1nc2ccccc2[nH]1 | > 100 µM |  |
| NNC(=S)N/N=C(\CC1OC(=O)c2ccccc21)c1ccccc1O (stereo not drawn) | > 100 µM |  |
| COC(=O)C1=C(O)c2cc(OC)c(OC)cc2C(c2ccc(OC)c(OC)c2)C1 (stereo not drawn) | > 100 µM |  |

| SMILES | TGI | GI50 [µM] |
| --- | --- | --- |
| Cc1cc(CC(O)c2ccc(Cl)c(Cl)c2)nc(=O)[nH]1 (stereo not drawn) | > 100 µM |  |
| CCCCCCCCCCCCCC1=NC(C)(C)CN1C(C)C | 3.39 µM | 1.88 |
| COC(=O)C(=Cc1cc(OC)ccc1OC)C(=O)OC | 50.1 µM |  |
| CC1=NNC(=O)C2CCC(=O)N12 (stereo not drawn) | > 100 µM |  |
| CCCCC(C(=O)C(=O)NC1C2CC3CC(C2)CC1C3)C(=O)C(C)C (stereo not drawn) | > 100 µM |  |
| COc1ccc(CN2C(=O)/C(=C\C(=O)c3ccc(OCCN4CCCCC4)cc3)c3ccccc32)cc1 | 27.9 µM | 13.8 |
| COC(=O)c1cc2c(s1)C(=O)c1ccccc1-2 | > 100 µM |  |
| Cc1ccc(S(=O)(=O)N(CC(=O)O)c2ccccc2)cc1 | > 100 µM |  |
| COc1ccc(C(=O)C(c2ccc(OC)cc2)C2(O)C(=O)Nc3ccc([N+](=O)[O-])cc32)cc1 (stereo not drawn) | > 100 µM |  |
| O=C(/C=C/c1ccccc1O)c1ccccc1O | > 100 µM |  |
| Cc1nc2c(-c3cnc(N)nc3)nc(N3CCOCC3)nc2n1C(C)C | 0.733 µM and 0.688 µM |  |
| CCCCCCNC(=O)c1cc(NCc2cc(O)ccc2O)ccc1O | 34.5 µM | 11.9 |
| N#CC(N)(C(=O)CCC(=O)Nc1cccc(Cl)c1)c1ccc(Cl)cc1 (stereo not drawn) | > 100 µM |  |
| S=C(Nc1ccccc1)N(/N=C/C=C/c1ccccc1)c1nnc(-c2ccccc2)c(-c2ccccc2)n1 | > 100 µM |  |
| CN1CCN(CCOc2ccc(-c3cnc4c(-c5ccccc5F)cnn4c3)cc2)CC1 | 3.57 µM | 1.86 |
| CN(C)N=Nc1ccc(NC=O)cc1 | > 100 µM |  |
| C=C1C(=O)OC2CCN3CC=C(COC(=O)C(C)(O)C4(CO4)C1C)C23 (stereo not drawn) | > 100 µM |  |

These compounds were tested on SK-MEL-5 melanoma (assay: NCI-60 cell line screen, 48 h).

| SMILES | GI50 [µM] | TGI |
| --- | --- | --- |
| OC[C@H]1C[C@](O)(c2ccc(Cl)cc2)[C@@H](c2ccc(Cl)cc2)O1 | 15.3 | 29.3 µM |
| CC(C)N(C(=O)C12C3C4C5(C#N)C3C1(C#N)C5C42I)C(C)C (stereo not drawn) |  | > 100 µM |
| C=COCCCOc1ccccc1 |  | > 100 µM |
| COc1cc2nc(-c3ccc(Cl)cc3)cc(OCCCN3CCCCC3)c2cc1OC | 1.1 | 2.32 µM |
| C=C(c1nc2ccc(Cl)cc2[nH]c1=O)C(O)c1ccc(C(O)C(=O)c2nc3ccc(Cl)cc3[nH]c2=O)cc1 (stereo not drawn) |  | > 100 µM |
| O=c1c2sc(=S)n(-c3ccc(F)cc3)c2ncn1Cc1ccc(F)cc1F | 84.3 | > 100 µM |
| CC(C)(C)CC(C)(C)c1cc2c(O)c(c1)Cc1cc(C(C)(C)CC(C)(C)C)cc(c1O)Cc1cc(C(C)(C)CC(C)(C)C)cc(c1O)Cc1cc(C(C)(C)CC(C)(C)C)cc(c1O)C2 |  | > 100 µM |
| C=CCCCCC/C=C\[C@H](O)C#CC#C/C=C/CO | 38.5 | > 100 µM |
| Cc1cc([N+](=O)[O-])ccc1Nc1cccc(Cl)c1C |  | 29.1 µM |
| Cn1cc(CO)c2c1C(=O)C=C(N1CC1)C2=O | < 0.01 | < 0.01 µM |
| CC1=C(C(=O)Nc2ccccc2)C(c2ccccc2)C(C(=O)Nc2ccccc2)=C(C)N1 |  | > 100 µM |
| Cc1nn(-c2ccccc2)c2nc(N3CCOCC3)nnc12 |  | > 100 µM |
| CC(C)c1ccc2c(c1)CC[C@@H]1[C@@](C)(C(=O)O)CCC[C@]21C | 5.02 | 16.5 µM |
| CCOc1ccccc1C=C1c2ccccc2C(=O)c2ccccc21 |  | 20.8 µM |
| O=C(CCn1[nH]c(=O)c(Cl)c(Cl)c1=O)NO |  | > 100 µM |
| CC(C)=CC/C=C(/C)[C@H]1CC[C@]2(C)[C@@H]1CC[C@@H]1[C@@]3(C)CCCNC(C)(C)[C@@H]3CC[C@]12C | 1.91 | 4.3 µM |
| [N-]=[N+]=NC12CC3C4CC5CC3C(C1)C(C5)C4C2 |  | > 100 µM |
| CN(C)c1nc2ccccc2[nH]1 |  | > 100 µM |

| SMILES | GI50 [µM] | TGI |
| --- | --- | --- |
| NNC(=S)N/N=C(\CC1OC(=O)c2ccccc21)c1ccccc1O (stereo not drawn) |  | > 100 µM |
| COC(=O)C1=C(O)c2cc(OC)c(OC)cc2C(c2ccc(OC)c(OC)c2)C1 (stereo not drawn) |  | > 100 µM |
| COC1(OC)CC2C(=O)N(Cc3ccccc3)C1C(S(=O)(=O)c1ccccc1)C2S(=O)(=O)c1ccccc1 (stereo not drawn) |  | 34 µM |
| Cc1cc(CC(O)c2ccc(Cl)c(Cl)c2)nc(=O)[nH]1 (stereo not drawn) |  | > 100 µM |
| CCCCCCCCCCCCCC1=NC(C)(C)CN1C(C)C | 1.67 | 3.03 µM |
| COC(=O)C(=Cc1cc(OC)ccc1OC)C(=O)OC |  | 42.7 µM |
| CC1=NNC(=O)C2CCC(=O)N12 (stereo not drawn) |  | > 100 µM |
| CC(C)c1ccccc1NC(=O)CCc1n[nH]c(=S)o1 |  | > 100 µM |
| CCCCC(C(=O)C(=O)NC1C2CC3CC(C2)CC1C3)C(=O)C(C)C (stereo not drawn) |  | > 100 µM |
| COc1ccc(CN2C(=O)/C(=C\C(=O)c3ccc(OCCN4CCCCC4)cc3)c3ccccc32)cc1 | 11 | 23.5 µM |
| COC(=O)c1cc2c(s1)C(=O)c1ccccc1-2 |  | > 100 µM |
| NC(=O)NC1C(c2ccccc2)=C1c1ccccc1 |  | 23.6 µM |
| Cn1c2c(c3ccccc31)C1CCCCCCC1C1C(=O)OC(=O)C21 (stereo not drawn) |  | > 100 µM |
| Cc1ccc(S(=O)(=O)N(CC(=O)O)c2ccccc2)cc1 |  | > 100 µM |
| O=C(/C=C/c1ccccc1O)c1ccccc1O |  | > 100 µM |
| Cc1nc2c(-c3cnc(N)nc3)nc(N3CCOCC3)nc2n1C(C)C |  | 0.9 µM and 0.652 µM |
| CCCCCCNC(=O)c1cc(NCc2cc(O)ccc2O)ccc1O | 11.8 | 25.4 µM |
| N#CC(N)(C(=O)CCC(=O)Nc1cccc(Cl)c1)c1ccc(Cl)cc1 (stereo not drawn) |  | > 100 µM |
